Experiments:
[1] = system: a2 (DNA, G4) ACAGGGGTGTGGGGACAGGGGTGTGGGG; experiment: photometric titration; settings: K+ 110 mM; K-phosphate buffer, pH 7.0, 5% v/v DMSO; compound 20 µM
[2] = system: c-kit (DNA, G4) AGGGAGGGCGCTGGGAGGAGGG; experiment: photometric titration; settings: K+ 110 mM; K-phosphate buffer, pH 7.0, 5% v/v DMSO; compound 20 µM
[3] = system: FkitT (DNA, G4) AGGGAGGGCGCTGGGAGGAGGG; experiment: FRET melting (fluorescence); settings: K+ 10 mM, Na+ 10 mM, Li+ 90 mM; cacodylate, pH 7.0; ligand:DNA ratio 5; DNA 0.2 µM (Figure S6; Table 2 prints 0.2 mM); error ±0.5 °C
[4] = system: c-myc (DNA, G4) TGAGGGTGGGTAGGGTGGGTA; experiment: photometric titration; settings: K+ 110 mM; K-phosphate buffer, pH 7.0, 5% v/v DMSO; compound 20 µM
[5] = system: FmycT (DNA, G4) TGAGGGTGGGTAGGGTGGGTA; experiment: FRET melting (fluorescence); settings: K+ 10 mM, Na+ 10 mM, Li+ 90 mM; cacodylate, pH 7.0; ligand:DNA ratio 5; DNA 0.2 µM (Figure S6; Table 2 prints 0.2 mM); error ±0.5 °C
[6] = system: 22AG (DNA, G4) AGGGTTAGGGTTAGGGTTAGGG; experiment: photometric titration; settings: K+ 110 mM; K-phosphate buffer, pH 7.0, 5% v/v DMSO; compound 20 µM

COc1ccc2cc3[n+](cc2c1OP(=O)(O)O)CCc1cc2c(cc1-3)OCO2
Kb [1]: 6.7 ± 0.2 × 10^5 M^-1
Kb [2]: 6.9 ± 0.2 × 10^5 M^-1
∆Tm [3]: 1.0 °C
Kb [4]: 5.9 ± 0.4 × 10^5 M^-1
∆Tm [5]: 2.2 °C
Kb [6]: 5.0 ± 0.6 × 10^5 M^-1

— paper PMC8124163 (2021)
